Experimental data as given in US6806265B2, “Non-nucleoside reverse transcriptase inhibitors” (priority 2002, dated 2004).
Where two headings read alike, the source gives them in different places.

Experiments:
[1] = test system: HIV-1 double mutant K103N/Y181C; experiment: microbe, parasite or virus in culture; type: cell-based
[2] = target: T1, HIV-1 wild type reverse transcriptase (Human immunodeficiency virus type 1 group M subtype B, UniProt P03366); experiment: biochemical
T1 construct: HIV-1 wild type reverse transcriptase
Experimental: (§1) Utilizing the Reverse Transcriptase (RT) Assay described below, compounds were tested for their ability to inhibit the RNA-dependent DNA polymerase activity of HIV-1 RT. Certain specific compounds described in the Examples and in Tables 1-4, were so tested. The results of this testing appear in Table 5 as ranges of IC50 (nM) and EC50 (nM).
(§2) Reverse Transcriptase (RT) Assays

[3] = target: T2, HIV-1 RT double mutant K103N/Y181C (Human immunodeficiency virus type 1 group M subtype B, UniProt P03366, K702N/Y780C); experiment: biochemical
T2 construct: HIV-1 wild type reverse transcriptase as well as the clinically significant double mutant K103N/Y181C
Experimental: as §1, §2

HIV-1 wild type = experiment: microbe, parasite or virus in culture; type: cell-based; settings: wild type, read-out: EC50 WT RT
[4] = double mutant K103N/Y181C, read-out: EC50 K103N/Y181C
[5] = wild type RT, read-out: IC50 WT RT
[6] = RT double mutant K103N/Y181C, read-out: IC50 K103N/Y181C
[7] = Human immunodeficiency virus 1, read-out: EC50 K103N/Y181C (nM)

Compound | EC50 [1, 4] [nM] | IC50 [2, 5] [nM] | IC50 [3, 6] [nM] | EC50 [1, 7] [nM] | IC50 [3] [nM] | other results
CCN1c2ncc(CCOc3ccc(-c4ccc(C(=O)O)cc4)cc3F)cc2C(=O)N(C)c2cccnc21 [Entry 1004] | > 50 | < 50 | > 100 |  |  | EC50 (HIV-1 wild type): < 10 nM
CCN1c2ncc(CCOc3ccc(S(=O)(=O)c4cccc(CC(=O)O)c4)cc3C)cc2C(=O)N(C)c2cccnc21 [Entry 3029] |  |  |  | > 50 | < 50 | 
CCN1c2ncc(CCOc3ccc(-c4cc(CC(=O)O)ccc4OC)cc3C)cc2C(=O)N(C)c2cccnc21 [Entry 1037] | 10 to 50 | < 50 | 50 to 100 |  |  | 
CCN1c2ncc(CCOc3ccc(C(=O)N(C)c4ccc(C(=O)O)cc4)cc3C)cc2C(=O)N(C)c2cccnc21 [Entry 3016] |  | < 50 |  | 10 to 50 | 50 to 100 | 
CCN1c2ncc(CCOc3ccc(C(=O)NC(C)(C)C(=O)O)cc3C)cc2C(=O)N(C)c2cccnc21 [Entry 4012] |  | < 50 |  | > 50 | 50 to 100 | EC50 (HIV-1 wild type; Human immunodeficiency virus 1): 10 to 50 nM
CCN1c2ncc(CCOc3ccc(-c4ncc[nH]4)cc3C)cc2C(=O)N(C)c2cccnc21 [Entry 1096, 11-Ethyl-5,11-dihydro-8-{2-[4-(1H-imidazol-2-yl)-2-methylphenoxy]ethyl}-5-methyl-6H-dipyrido[3,2-b:2′,3′-e][1,4]diazepin-6-one] |  | < 50 |  | < 10 | < 50 | 
CCN1c2ncc(CCOc3ccc(-c4ccc(Cl)c(CC(=O)O)c4)cc3C)cc2C(=O)N(C)c2cccnc21 [Entry 1038] | 10 to 50 | < 50 | < 50 |  |  | 
CCN1c2ncc(CCOc3ccc(-c4cc(CC(=O)O)ccc4C)cc3C)cc2C(=O)N(C)c2cccnc21 [Entry 1036] | 10 to 50 | < 50 | 50 to 100 |  |  | 
CCN1c2ncc(CCOc3ccc(-c4cc(C(=O)O)ccc4C)cc3C)cc2C(=O)N(C)c2cccnc21 [Entry 1028] | 10 to 50 | < 50 | > 100 |  |  | 
CCN1c2ncc(CCOc3ccc(S(=O)(=O)c4ccc(C(=O)O)cc4)cc3C)cc2C(=O)N(C)c2cccnc21 [Entry 3028] |  | < 50 |  | > 50 | < 50 | 
CCN1c2ncc(CCOc3ccc(-c4ccc(C)nc4)cc3C)cc2C(=O)N(C)c2cccnc21 [Entry 1072] | < 10 |  | < 50 |  |  | 
CCN1c2ncc(CCOc3ccc(S(=O)(=O)c4ccncc4)cc3C)cc2C(=O)N(C)c2cccnc21 [Entry 3037] |  |  |  | < 10 | < 50 | 
CCN1c2ncc(CCOc3ccc(C(=O)NNCC(=O)O)cc3C)cc2C(=O)N(C)c2cccnc21 [Entry 4015] |  | < 50 |  |  | > 100 | EC50 (HIV-1 wild type; Human immunodeficiency virus 1): 10 to 50 nM
CCN1c2ncc(CCOc3ccc(-c4ccc(CC(=O)O)c(C)c4)cc3C)cc2C(=O)N(C)c2cccnc21 [Entry 1021] | 10 to 50 | < 50 | < 50 |  |  | 
CCN1c2ncc(CCOc3ccc(C(=O)Nc4ccc(C(=O)O)cn4)cc3C)cc2C(=O)N(C)c2cccnc21 [Entry 3014] |  |  |  | 10 to 50 | < 50 | IC50 [2]: < 50 nM
CCN1c2ncc(CCOc3ccc(-c4cccnc4)cc3C)cc2C(=O)N(C)c2cccnc21 [Entry 1067] | < 10 |  | < 50 |  |  | IC50 ([2]; read-out: IC50 WT RT): < 50 nM
CCN1c2ncc(CCOc3ccc(-c4ccc(O)c(C(=O)O)c4)cc3C)cc2C(=O)N(C)c2cccnc21 [Entry 1033] | > 50 | < 50 | 50 to 100 |  |  | 
CCN1c2ncc(CCOc3ccc(Nc4nc(C(=O)O)cs4)cc3C)cc2C(=O)N(C)c2cccnc21 [Entry 3026] |  |  |  | 10 to 50 | 50 to 100 | EC50 (HIV-1 wild type; Human immunodeficiency virus 1): < 10 nM
CCN1c2ncc(CCOc3ccc(-c4cc[n+](C)cc4)cc3C)cc2C(=O)N(C)c2cccnc21 [Entry 1089] | < 10 |  | < 50 |  |  | 

Compound | EC50 [1, 4] [nM] | IC50 [2, 5] [nM] | IC50 [3, 6] [nM] | EC50 [1, 7] [nM] | IC50 [3] [nM] | other results
CCN1c2ncc(CCOc3ccc(Nc4ccc(C(=O)O)cn4)cc3C)cc2C(=O)N(C)c2cccnc21 [Entry 3025] |  |  |  | 10 to 50 | < 50 | 
CCN1c2ncc(CCOc3ccc(Nc4ccccn4)cc3C)cc2C(=O)N(C)c2cccnc21 [Entry 3036] |  |  |  | < 10 | < 50 | 
CCN1c2ncc(CCOc3ccc(-c4nccn4C)cc3C)cc2C(=O)N(C)c2cccnc21 [Entry 1097, 11-Ethyl-5,11-dihydro-5-methyl-8-{2-[2-methyl-4-(1-methyl-1H-imidazol-2-yl)phenoxy]ethyl}-6H-dipyrido[3,2-b:2′,3′-e][1,4]diazepin-6-one] |  | < 50 |  | 10 to 50 | 50 to 100 | 
CCN1c2ncc(CCOc3ccc(C(=O)N4CCC(C(=O)O)CC4)cc3C)cc2C(=O)N(C)c2cccnc21 [Entry 3008] |  | < 50 |  |  | 50 to 100 | EC50 (HIV-1 wild type; Human immunodeficiency virus 1): 10 to 50 nM
CCN1c2ncccc2NC(=O)c2cc(CCOc3ccc(-c4ccc[n+]([O-])c4)cc3C)cnc21 [Entry 1100] | 10 to 50 | < 50 |  |  |  | EC50 (HIV-1 wild type): < 10 nM
CCN1c2ncc(CCOc3ccc(-c4ccc(CC(=O)O)cc4OC)cc3C)cc2C(=O)N(C)c2cccnc21 [Entry 1026] | 10 to 50 | < 50 | < 50 |  |  | 
CCN1c2ncc(CCOc3ccc(-c4ccc(C(=O)O)cc4)cc3)cc2C(=O)N(C)c2ccc(Cl)nc21 [Entry 1002] |  | < 50 | < 50 |  |  | EC50 (HIV-1 wild type): < 10 nM
CCN1c2ncc(CCOc3ccc(-c4ccc(CC(=O)O)cc4)cc3C)cc2C(=O)Nc2c(C)ccnc21 [Entry 1009] |  | < 50 | < 50 |  |  | EC50 (HIV-1 wild type): 10 to 50 nM
CCN1c2ncc(CCOc3ccc(-c4ccc(C(C)C(=O)O)cc4)cc3C)cc2C(=O)N(C)c2cccnc21 (stereo not drawn) [Entry 1010] | 10 to 50 | < 50 | < 50 |  |  | 
CCN1c2ncc(CCOc3ccc(-n4ccnc4)cc3C)cc2C(=O)N(C)c2cccnc21 [Entry 1098, 11-Ethyl-5,11-dihydro-8-{2-[4-(1H-imidazol-1-yl)-2-methylphenoxy]ethyl}-5-methyl-6H-dipyrido[3,2-b:2′,3′-e][1,4]diazepin-6-one] |  |  |  | < 10 | < 50 | 
CCN1c2ncc(CCOc3ccc(-c4cc(C)[n+]([O-])c(C)c4)cc3C)cc2C(=O)N(C)c2cccnc21 [Entry 1088] |  | < 50 | < 50 |  |  | 
CCN1c2ncc(CCOc3ccc(-c4ccc(CC(=O)O)cc4F)cc3C)cc2C(=O)N(C)c2cccnc21 [Entry 1024] | 10 to 50 | < 50 | < 50 |  |  | 
CCN1c2ncc(CCOc3ccc(-c4ccc(N)nc4C)cc3C)cc2C(=O)N(C)c2cccnc21 [Entry 1081] |  | < 50 | < 50 |  |  | 
CCN1c2ncc(CCOc3ccc(NC(=O)NCC(=O)O)cc3C)cc2C(=O)N(C)c2cccnc21 [Entry 4004] |  | < 50 |  |  | > 100 | EC50 (HIV-1 wild type; Human immunodeficiency virus 1): 10 to 50 nM
CCN1c2ncc(CCOc3ccc(C(=O)Nc4cccc[n+]4[O-])cc3C)cc2C(=O)N(C)c2cccnc21 [Entry 3015] |  | < 50 |  |  | < 50 | 
CCN1c2ncc(CCOc3ccc(-c4cc(F)c(O)c(F)c4)cc3C)cc2C(=O)N(C)c2cccnc21 [Entry 1103] |  | < 50 | 50 to 100 |  |  | 
CCN1c2ncc(CCOc3ccc(NC(=O)/C=C/C(=O)O)cc3C)cc2C(=O)N(C)c2cccnc21 [Entry 4010] |  | < 50 |  |  | 50 to 100 | EC50 (HIV-1 wild type; Human immunodeficiency virus 1): > 50 nM
CCN1c2ncc(CCOc3ccc(-c4ccc(Cl)c(C(=O)O)c4)cc3C)cc2C(=O)N(C)c2cccnc21 [Entry 1032] | 10 to 50 | < 50 | 50 to 100 |  |  | 
